Where a name gives a salt, the structure may show the parent alone.

Experimental findings from patent US10183944B2 (Asana Biosciences, LLC, priority 2011, dated 2019) are described below.

Test [1] concerns RBL2H3 cells. Description: Degranulation assay: β-hexosaminidase release during immune complex mediated degranulation. Format: cell-based, rat. The note with it: Rattus norvegicus, RBL-2H3, Assay Protocol B (96 well format); for inhibition at 1 µM: read-out: Degranulation % inhibition at 1 μM; for EC50: read-out: Degranulation EC50. On the procedure:
The objective of this assay was to examine by Fluorescence method the effect of compounds on β-hexosaminidase release during immune complex mediated degranulation in RBL2H3 cells. Compounds were tested for their ability to inhibit the ability of this immune complex to mediate β-hexosaminidase release, in an enzyme assay with […] as substrate. […] Emission 460 nm). [table] [table] RBL2H3 cells were maintained in MEM complete media containing 10% FBS at 70%-80% confluence in a mammalian cell culture CO2 incubator with 5% CO2 at 37° C. 2×10^5 cells/well were plated in 1 mL of complete media and incubated for 5 hours for cell attachment. Complete media was replaced with 1 mL of serum free MEM media containing 1.2 μg/mL of anti-DNP rat IgE as sensitizing agent and further incubated overnight with 5% CO2 at 37° C. […] Cells were further stimulated with 5 μg/mL of DNP-BSA for 60 minutes. Plates were centrifuged for 5 minutes at 1000 rpm and 25 μL of culture supernatant was transferred from each assay well into a 96 well black coated plate. 25 μL β-NAG substrate was added to this mixture and incubated at room temperature for 30 minutes. The reaction was terminated with 100 μL of stop solution and fluorescence was monitored. (Excitation 355 nm; Emission 460 nm) See, Sanderson, (2010), Cellular Immunology, 262(1): 28-34 and Silverman, (2006) MCB, 26(5):1826-1838, which are incorporated herein by reference. The % release of β-Hexosaminidase for the test compound was calculated using the following formula: RBL2H3 cells were maintained in MEM complete media containing 10% FBS at 70-80% confluence in a mammalian cell culture CO2 incubator with 5% CO2 at 37° C. 5×10^4 cells/well were plated in 200 μL of complete media containing 0.3 μg/mL of anti-DNP rat IgE as sensitizing agent for 24 hours at 37° C. & 5% CO2. The following day, cells were washed twice with PIPES buffer for 10 minutes at 37° C. and replenished with serum free MEM media. Cells were treated with various concentrations of test compounds (in 0.5% DMSO) for 15 minutes at 37° C. and 5% CO2. The cells were further stimulated with 0.1 μg/mL of DNP-BSA for 45 minutes. The plates were spun for 5 minutes at 2000 rpm and 25 μL of culture supernatant was then transferred from each assay well into a 96 well black coated plate. […] β-NAG substrate was added and incubated at RT for 30 minutes. After incubation with substrate, 150 μL of stop solution was added and fluorescence was monitored. (Excitation 355 nm; Emission 460 nm). See, Yamamoto, JPET, 306(3):1174-1181 (2003) and Taylor, MCB, 15(8): 4149-4157 (1995), which are herein incorporated by reference. Release of β-hexosaminidase during the degranulation process by immune complex mediated FcεRI stimulation is through the SYK pathway. The % inhibition of β-hexosaminidase release by Syk inhibitor gives information with regard to its Syk inhibition potency.

For test [2], the target named is JAK2 (Homo sapiens (Human), UniProt O60674). Description: Inhibition of enzymatic JAK2 kinase activity (TR-FRET). Format: biochemical. Conditions: read-out: IC50 JAK. The method, boiled down: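 Enzyme preincubated with compound 30 min at RT, then Ulight-poly-GT substrate and ATP added for 60 min at RT. EDTA stop, Eu-antiphosphotyrosine antibody; TR-FRET ratio 665/615 nm (ex 340 nm), blank-corrected; % inhibition versus positive control.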

For test [3], the target named is Syk (356-635 amino acids) catalytic domain (Homo sapiens (Human), UniProt P43405). Description: Inhibition of enzymatic Syk kinase activity (radiometric). Conditions: read-out: IC50 Syk. Format: biochemical. An outline of the steps:
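Human Syk (356-635) kinase domain (0.035–7.5 ng/reaction) preincubated with compound 30 minutes at room temperature, then reacted with pG4T substrate, 100 μM ATP (stock) and γ-32P-ATP for 10 minutes at 30° C. Reaction stopped with HCl/ATP, spotted on P81 paper, washed and counted by scintillation. Percent inhibition versus no-compound counts.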

Chain of JAK2 (O60674 808-1132): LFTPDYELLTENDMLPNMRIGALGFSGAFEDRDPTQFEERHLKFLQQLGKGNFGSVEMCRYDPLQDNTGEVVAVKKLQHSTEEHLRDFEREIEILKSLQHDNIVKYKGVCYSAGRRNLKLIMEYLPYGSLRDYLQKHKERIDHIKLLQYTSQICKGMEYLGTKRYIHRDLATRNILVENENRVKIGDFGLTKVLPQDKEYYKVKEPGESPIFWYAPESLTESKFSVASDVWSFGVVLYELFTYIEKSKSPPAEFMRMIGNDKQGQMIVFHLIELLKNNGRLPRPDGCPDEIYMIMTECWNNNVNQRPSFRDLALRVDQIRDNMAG

Turning to `O=c1[nH]ncc2nc(N3CCCCCC3)nc(Nc3ccc(OCCN4CCNCC4)cc3)c12` [Example 89, 2-(azepan-1-yl)-4-((4-(2-(piperazin-1-yl)ethoxy)phenyl)amino)pyrimido[4,5-d]pyridazin-5(6H)-one hydrochloride], the inhibition at 1 µM in test [1] was 100%.
Consider `N#CCC1CCN(c2ccc(Nc3nc(N4CCC(CC#N)CC4)nc4cn[nH]c(=O)c34)cn2)CC1` [Example 103, 2-(1-(5-((2-(4-(cyanomethyl)piperidin-1-yl)-5-oxo-5,6-dihydropyrimido[4,5-d]pyridazin-4-yl)amino)pyridin-2-yl)piperidin-4-yl)acetonitrile], for which, in test [1], the inhibition at 1 µM amounted to 87% and the EC50 came out at 0.032 µM.
With `CC1CC(C)CN(c2nc(Nc3ccc(N4CCC(CC(=O)O)CC4)cc3)c3c(=O)[nH]ncc3n2)C1` (centres unmarked) [Example 117, 2-(1-(4-((2-(3,5-dimethylpiperidin-1-yl)-5-oxo-5,6-dihydropyrimido[4,5-d]pyridazin-4-yl)amino)phenyl)piperidin-4-yl)acetic acid], in test [1], the inhibition at 1 µM is 89% and the EC50 stood at 0.095 µM.
Turning to `O=C(O)CN1CCN(c2ccc(Nc3nc(N4CCCCCC4)nc4cn[nH]c(=O)c34)cc2)CC1` [Example 125, 2-(4-(4-((2-(azepan-1-yl)-5-oxo-5,6-dihydropyrimido[4,5-d]pyridazin-4-yl)amino)phenyl)piperazin-1-yl)acetic acid], in test [1], the inhibition at 1 µM stood at 38% and the EC50 came to 0.238 µM.
`O=C(O)C1CC12CCN(c1ccc(Nc3nc(-c4ccc(F)cc4)nc4cn[nH]c(=O)c34)cc1)CC2` (centres unmarked) [Example 133, 6-(4-((2-(4-fluorophenyl)-5-oxo-5,6-dihydropyrimido[4,5-d]pyridazin-4-yl)amino)phenyl)-6-azaspiro[2.5]octane-1-carboxylic acid]: in test [1], the inhibition at 1 µM worked out at 98% and the EC50 amounted to 0.025 µM.
Regarding `N#CCC1CCN(c2nc(Nc3ccc(OCCO)cc3)c3c(=O)[nH]ncc3n2)CC1` [Example 293, 2-(1-(4-((4-(2-hydroxyethoxy)phenyl)amino)-5-oxo-5,6-dihydropyrimido[4,5-d]pyridazin-2-yl)piperidin-4-yl) acetonitrile], the IC50 in test [2] is below 0.05 µM; in test [3], below 0.1 µM.
Taken in the same sequence, the figures for `O=c1[nH]ncc2nc(N3CCCCCC3)nc(Nc3ccc(OCCO)cc3)c12` [Example 294, 2-(azepan-1-yl)-4-((4-(2-hydroxyethoxy)phenyl)amino)pyrimido[4,5-d]pyridazin-5(6H)-one] were below 0.05 µM and below 0.05 µM.
Taken in the same sequence, the figures for `N#CCC1CCN(c2nc(Nc3ccc(OCCCO)cc3)c3c(=O)[nH]ncc3n2)CC1` [Example 295, 2-(1-(4-((4-(3-hydroxypropoxy)phenyl)amino)-5-oxo-5,6-dihydropyrimido[4,5-d]pyridazin-2-yl)piperidin-4-yl) acetonitrile] were below 0.05 µM and below 0.05 µM.
Taken in the same sequence, the figures for `N#CCC1CCN(c2nc(Nc3ccc(N4CCC(CCF)CC4)cc3)c3c(=O)[nH]ncc3n2)CC1` [Example 299, 2-(1-(4-((4-(4-(2-fluoroethyl)piperidin-1-yl)phenyl)amino)-5-oxo-5,6-dihydropyrimido[4,5-d]pyridazin-2-yl)piperidin-4-yl)acetonitrile] were below 0.05 µM and below 0.05 µM.
Take `O=c1[nH]ncc2nc(N3CCCCCC3)nc(Nc3ccc(CCCO)cc3)c12` [Example 308, 2-(azepan-1-yl)-4-((4-(3-hydroxypropyl)phenyl)amino)pyrimido[4,5-d]pyridazin-5(6H)-one]: the values for the IC50 in test [2] and in test [3] were below 0.01 µM and below 0.05 µM, respectively.
The matching figures for `N#CCC1CCN(c2nc(Nc3ccc(CCCO)cc3)c3c(=O)[nH]ncc3n2)CC1` [Example 309, 2-(1-(4-((4-(3-hydroxypropyl)phenyl)amino)-5-oxo-5,6-dihydropyrimido[4,5-d]pyridazin-2-yl)piperidin-4-yl) acetonitrile]: below 0.05 µM and below 0.05 µM.
Take `CC(C)(CO)Oc1ccc(Nc2nc(N3CCCCCC3)nc3cn[nH]c(=O)c23)cc1` [Example 314, 2-(azepan-1-yl)-4-((4-((1-hydroxy-2-methylpropan-2-yl)oxy)phenyl)amino) pyrimido[4,5-d]pyridazin-5(6H)-one]: the IC50 in test [2] is below 0.01 µM; in test [3], below 0.05 µM.
The matching figures for `O=c1[nH]ncc2nc(N3CCCCCC3)nc(Nc3ccc(CCO)cc3)c12` [Example 322, 2-(azepan-1-yl)-4-((4-(2-hydroxyethyl)phenyl)amino)pyrimido[4,5-d]pyridazin-5(6H)-one]: below 0.01 µM and below 0.05 µM.
The matching figures for `N#CCC1CCN(c2nc(Nc3ccc(CCO)cc3)c3c(=O)[nH]ncc3n2)CC1` [Example 323, 2-(1-(4-((4-(2-hydroxyethyl)phenyl)amino)-5-oxo-5,6-dihydropyrimido[4,5-d]pyridazin-2-yl)piperidin-4-yl) acetonitrile]: below 0.05 µM and below 0.05 µM.
The matching figures for `COCCOc1ccc(Nc2nc(N3CCCCCC3)nc3cn[nH]c(=O)c23)cc1` [Example 324, 2-(azepan-1-yl)-4-((4-(2-methoxyethoxy)phenyl)amino)pyrimido[4,5-d]pyridazin-5(6H)-one]: below 0.05 µM and below 0.05 µM.
Regarding `O=c1[nH]ncc2nc(N3CCCCCC3)nc(Nc3ccc(CO)cc3)c12` [Example 331, 2-(azepan-1-yl)-4-((4-(hydroxymethyl)phenyl)amino)pyrimido[4,5-d]pyridazin-5(6H)-one], the IC50 in test [2] was above 0.1 µM; in test [3], below 0.05 µM.
In the case of `CS(=O)(=O)c1ccc(Nc2nc(N3CCCCCC3)nc3cn[nH]c(=O)c23)cc1` [Example 334, 2-(azepan-1-yl)-4-((4-(methylsulfonyl)phenyl)amino)pyrimido[4,5-d]pyridazin-5(6H)-one], the results for the IC50 in test [2] and in test [3] were below 0.01 µM and below 0.05 µM, respectively.
Taken in the same sequence, the figures for `N#CCC1CCN(c2nc(Nc3ccc4[nH]nnc4c3)c3c(=O)[nH]ncc3n2)CC1` [Example 335, 2-(1-(4-((1H-benzo[d][1,2,3]triazol-5-yl)amino)-5-oxo-5,6-dihydropyrimido[4,5-d]pyridazin-2-yl)piperidin-4-yl) acetonitrile] were below 0.05 µM and below 0.05 µM.
The matching figures for `N#CCC1CCN(c2nc(Nc3ccc4[nH]c(=O)[nH]c4c3)c3c(=O)[nH]ncc3n2)CC1` [Example 336, 2-(1-(5-oxo-4-((2-oxo-2,3-dihydro-1H-benzo[d]imidazol-5-yl)amino)-5,6-dihydropyrimido[4,5-d]pyridazin-2-yl)piperidin-4-yl)acetonitrile]: below 0.05 µM and below 0.05 µM.
Taken in the same sequence, the figures for `N#CCC1CCN(c2nc(Nc3ccc(CCCF)cc3)c3c(=O)[nH]ncc3n2)CC1` [Example 337, 2-(1-(4-((4-(3-fluoropropyl)phenyl)amino)-5-oxo-5,6-dihydropyrimido[4,5-d]pyridazin-2-yl)piperidin-4-yl) acetonitrile] were below 0.05 µM and below 0.05 µM.
Regarding `N#CCC1CCN(c2nc(Nc3ccc(OC(F)F)cc3)c3c(=O)[nH]ncc3n2)CC1` [Example 338, 2-(1-(4-((4-(difluoromethoxy)phenyl)amino)-5-oxo-5,6-dihydropyrimido[4,5-d]pyridazin-2-yl)piperidin-4-yl) acetonitrile], the IC50 in test [2] was above 0.1 µM; in test [3], below 0.1 µM.

For orientation: inhibition means the percentage by which the read-out fell short of the control. For orientation: EC50 means the concentration giving half of the maximal effect. The IC50 is the concentration that gives 50% inhibition.
